# According to patent US4990538A, “Use of toremifene and its metabolites for the reversal of multidrug resistance of cancer cells against cytotoxic drugs” (priority 1989, dated 1991):
# Entries after “also recorded” stand apart in the source; their conditions may differ.
# How the values were obtained:
# [1] = cited from earlier work
# [2] = system: HOV-018; experiment: Number of living cells (bioluminescence), ovarian cancer line HOV-018; details: doxorubicin 0 μg/ml
# Method: (§1) Two human ovarian cell lines were established in vitro from fresh serous ovarian cancer tissues. The lines are coded HOV-007 and HOV-018. The cells were cultivated in Eagle's MEM containing 1% unstripped foetal calf serum. The assays were carried out at 37° C. in 5% CO2 on 96 well plates.
# [3] = system: B-16 melanoma; experiment: Schedule dependency of antitumor effect in B-16 melanoma; details: toremifene 150 mg/kg p.o. days 1-5
# Method: (§2) Lewis Lung (LL) or melanoma B-16 tumor cells, 2×10^6 cells/animal, were inoculated intramuscularly to female C-57 mice. Tumors were allowed to grow to the mean diameter of 1.5 cm after which toremifene/doxorubicin treatments were started as indicated in the next tables. Tumor size was measured before treatment and after 10 days in 2 dimensions and the mean was considered as tumor diameter. Weight of the animals was also recorded.
# [4] = system: CHO-K1 cells; experiment: MTT cell viability assay in wild-type CHO-K1 cells
# Method: (§4) Initial cell growth studies were carried out to investigate the effect of combination toremifene +doxorubicin in doxorubicin sensitive and resistant cells. Cell cultures were carried out using wild type CHO-K1 cells as well as CHO-Adr cells, the latter being selected by a series of step-wise selections of doxorubicin resistant clones in presence of 0.4 ug/ml of doxorubicin. […] The resistant cells were stable in cell culture in the absence of doxorubicin. Both cell lines were cultivated in Hams F10 medium supplemented with 5% newborn calf serum, 5% foetal calf serum, antibiotics and 3mM glutamine. The cells were maintained as monolayer cultures 37° C. under 5% CO2. Drug sensitivity in CHO-K1and CHO-Adr cells was assessed by a semi-automated colorimetric MTT assay. The assay is dependent on the cellular reduction of MTT (3-U4,5-dimethylthiazol-2-ylA-2,5-diphenyl tertazolium bromide, thiazolyl blue) by the mitochondrial dehydrogenase of viable cells to a blue formazan product which was measured spectrophotometrically. The cells were seeded on 96-well plates and allowed to settle for 12 hours at 37° C. in 5% CO2. Appropriate drug concentrations diluted in growth medium were added for 24 hours. Toremifene was dissolved in 95% ethanol stock solution, doxorubicin stock solution was prepared in water. […] The cells were incubated with the drugs for 24 hours, after which the cells were washed twice with phosphate buffered saline before being placed in 200 μl fresh medium for a further 48 hours. At the end of this incubation 0.1 mg MTT was added to each well and incubated for 4 hours. The medium was carefully aspirated and the crystals were solubilised in 100 μ l DMSO (dimethyl sulfoxide). Absorbances at 540 nm were read immediately on an ELISA Multiskan reader. The results were expressed as a percentage of absorbance of drug treated cells compared to controls.
# (§5) The effect of AAG in the concentration of 0.1 to 2 mg/ml was assessed on the potentiation produced by toremifene.
# [5] = in vitro; details: hamster, cho-adr cells
# Method: as §4, §5
# [6] = system: CHO-K1 cells; experiment: Doxorubicin transport (accumulation) in CHO-K1 cells; assay type: cell-based; details: 2 μM toremifene; 1 μM doxorubicin; wild-type CHO-K1
# [7] = system: CHO-Adr cells; experiment: MTT cell viability assay in doxorubicin resistant CHO-Adr cells
# Method: as §4, §5
# [8] = system: MCF-7/DOX cells; experiment: Inhibition of cell growth / reversal of MDR in MCF-7/DOX cells (methylene blue); assay type: cell-based, human; details: for Inhibition of cell growth, Actual: 2880 min
# Method: The cells were cultivated in 100 ul volumes in 96-well microtiter plates. The principle of the method was to cultivate cells in the presence of the drugs/ drug combinations for 48 hours. After this time the living cells were stained with methylene blue and quantitated spectrophotometrically using microtiter plate reader (Titertek Model MCC/340) interfaced to an Apple IIe computer. Inhibition of the cell growth is expressed as a percentage of absorbance of vehicle treated control cultures.
# [9] = system: α1 -acid glycoprotein (AAG); details: cited from earlier work
# [10] = system: Ovarian ca.; details: subrenal capsule assay, all tumor types
# Method: (§3) Pieces of fresh human tumors were implanted under the outer capsule of mouse kidney. Mice were treated with different combinations of cytotoxic drugs (doses preselected according to toxicity of each combination), with or without toremifene (150 mg/kg p.o.). Control animals received saline injections. The drugs were given on five consecutive days after the inoculation of the tumors. The sizes of the tumor pieces were measured by stereo microscope equipped with ocular micrometer immediately after inoculation (initial size) and on the sixth day when the animals were killed (final size). The difference final size - initial size describes the growth or regression of the tumor. The measuring unit was ocular micrometer unit (omu). 10 omu is identical to 1.0 mm. In addition to the tumor size, the weight gain of the animals was measured. The weight gain describes the toxicity of the treatment. In general, the ratio final weight/ pretest weight should be more than 0.80. Otherwise the toxicity is considered unacceptable.
# [11] = mouse, in vivo
# Method: as §3
# [12] = system: HOV-007; experiment: Number of living cells (bioluminescence), ovarian cancer line HOV-007; details: doxorubicin 0 μg/ml, 3 days
# Method: as §1
# presented. Number of cells was quantitated after 3 days'
# [13] = in vitro; details: hamster, cho-k1 cells
# Method: as §4, §5
# [14] = system: Human melanoma UV-me-1; experiment: Toremifene and doxorubicin in human melanoma UV-me-1; details: doxorubicin 0 μg/ml, 2 days, control 100
# [15] = system: Lewis Lung (LL) tumor; experiment: Schedule dependency of antitumor effect in Lewis Lung tumor; details: toremifene 150 mg/kg p.o. days 1-5
# Method: as §2
# [16] = system: MCF-7/DOX; experiment: Sensitization of MCF-7/DOX by patients' plasma ultrafiltrate; assay type: cell-based, human; details: FIG. 8
# Method: Cells were growth in Corning 75-cm^2 tissue flasks and were maintained in exponential growth using RPMI 1640 medium supplemented with 5% fetal bovine serum in 5% CO2 and 95% air. […] The cells were cultivated in 100 ul volumes in 96-well microtiter plates. The principle of the method was to cultivate cells in the presence of the drugs/ drug combinations for 48 hours. After this time the living cells were stained with methylene blue and quantitated spectrophotometrically using microtiter plate reader (Titertek Model MCC/340) interfaced to an Apple IIe computer. Inhibition of the cell growth is expressed as a percentage of absorbance of vehicle treated control cultures. Human plasma samples were obtained from patients participating clinical phase I studies receiving 10, 20, 40, 60, 200 or 400 mg toremifene daily for eight weeks. Ultrafiltrate from the plasma was prepared by placing plasma specimens in Amicon CF-10 filters (MW cutoff 10 000) followed by centrifugation at 5000×g for 20 minutes. The ultrafiltrates were used in order to study if the concentrations achieved clinically were able to sensitize MCF-7/DOX. Part of the growth medium was replaced by plasma ultrafiltrate and the cells were allowed to grow for 4 days, at which time they were stained and quantitated as described above.
# [17] = drug 3.0 μg/ml +1 μM doxorubicin
compound,measurement,setting,value
CN(C)CCOc1ccc(/C(=C(/CCCl)c2ccccc2)c2ccccc2)cc1 [toremifene],Safety / toxicity in clinical use,[1]; at dose levels or concentrations required for MDR reversal,very safe drug
same,maximal tolerated dose,[1]; clinical phase I trials,400 to 600 mg daily
same,Number of living cells,"[2]; toremifene 1.0 μM, 4320 min",104% of control values
same,Number of living cells,[2]; toremifene 3.0 μM,99% of control values
same,Number of living cells,"[2]; toremifene 10.0 μM, 4320 min",97% of control values
same,Change of tumor size,[3],+3.2 mm
same,Effect of AAG on toremifene toxicity,[4]; AAG 2 mg/ml,protected both cell lines from toremifene toxicity
same,Effect of toremifene on doxorubicin toxicity at highest AAG level,[4]; AAG 2 mg/ml,cell viability was no different from that when doxorubicin alone was present; also recorded: no longer any effect of toremifene on doxorubicin toxicity
same,AAG concentration above which potentiation by toremifene is gradually reversed,[4]; doxorubicin + 10 μM toremifene,above 0.5 mg/ml
same,Potentiation of doxorubicin toxicity,[4]; toremifene 1 to 10 μM,incremental potentiation of doxorubicin toxicity
same,MCC at 24 h,[5],> 10 µM
same,Drug accumulation of doxorubicin,[6],enhanced drug accumulation
same,Potentiation of doxorubicin toxicity,[7]; CHO-Adr,the degree of potentiation was greater
same,"Relative potentiation of doxorubicin toxicity, resistant vs wild-type","[7]; CHO-Adr vs CHO-K1, increasing concentrations of toremifene",far greater in the CHO-Adr cell line than in the parent cell line; also recorded: greater for the resistant than the wild-type cells
same,Effect of AAG on toremifene toxicity,"[7]; CHO-Adr, AAG 2 mg/ml",protected both cell lines from toremifene toxicity
same,Effect of toremifene on doxorubicin toxicity at highest AAG level,"[7]; CHO-Adr, AAG 2 mg/ml",cell viability was no different from that when doxorubicin alone was present; also recorded: no longer any effect of toremifene on doxorubicin toxicity
same,AAG concentration above which potentiation by toremifene is gradually reversed,"[7]; CHO-Adr, doxorubicin + 10 μM toremifene",above 0.5 mg/ml
same,Increase of sensitivity to doxorubicin,"[7]; CHO-K1 and CHO-Adr, toremifene concentrations not inhibiting cell growth on their own",can be increased by toremifene concentrations which do not inhibit cell growth on their own
same,Effectiveness in reversing MDR,"[8]; MCF-7/DOX cells, Table 5 and FIG. 7",almost equally effective
same,"Inhibition of cell growth, Actual",[8]; [17],38 % control
same,Potential (potentiation of doxorubicin activity),[8]; [17],58 % control
same,"Inhibition of cell growth, Actual",[8]; drug […] +1 μM doxorubicin,31 % control
same,Potential (potentiation of doxorubicin activity),[8]; drug […] +1 μM doxorubicin,48 % control
same,Binding to α1-acid glycoprotein,[9],bound in some extent
same,Sensitivity to cytotoxic drugs in human tumors,[10],can increase the sensitivity to cytotoxic drugs in human tumors
same,Effect of toremifene addition on weight gain,[11],not influenced by toremifene addition
same,Number of living cells,[12]; toremifene 1.0 μM,95% of control values
same,Number of living cells,[12]; toremifene 3.0 μM,71% of control values
same,Number of living cells,[12]; toremifene 10.0 μM,66% of control values
same,MCC at 24 h,[13],> 10 µM
same,Toremifene and doxorubicin in UV-me-1 (living cells),[14]; toremifene 0.5 μM,97
same,Toremifene and doxorubicin in UV-me-1 (living cells),[14]; toremifene 5.0 μM,32
same,Change of tumor diameter,[15],+5.4 mm
same,MDR reversing effect in patients' sera,[16],A clear concentration-dependency
